{"source": "patent US10294202B2", "about": "“Pyrrolidinones as herbicides” (FMC Corporation, priority 2013, dated 2019)", "experiment_in_all_cases": "Test E preemergence herbicide test", "design_in_all_cases": "key: 0 = no effect, 100 = complete control", "key": {"surinam grass": {"tested_on": "surinam grass", "assay_type": "in vivo, Brachiaria decumbens", "in_short": "(§1)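 Test chemicals, formulated in a surfactant-containing non-phytotoxic solvent blend, are applied preemergence to seeded silt loam soil. After 21 days in the greenhouse, response is scored visually relative to controls, where 100 means complete control and 0 means no effect.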"}, "crabgrass, large": {"tested_on": "crabgrass, large", "assay_type": "in vivo, Digitaria sanguinalis", "in_short": "as §1"}, "johnsongrass": {"tested_on": "johnsongrass", "assay_type": "in vivo, Sorghum halepense", "in_short": "as §1"}, "barnyardgrass": {"tested_on": "barnyardgrass", "assay_type": "in vivo, Echinochloa crus-galli", "in_short": "as §1"}, "arrowleaf sida": {"tested_on": "arrowleaf sida", "assay_type": "in vivo, Sida rhombifolia", "description": "Seeds of plant species selected from corn (Zea mays), soybean (Glycine max), velvetleaf (Abutilon theophrasti), lambsquarters (Chenopodium album), wild poinsettia (Euphorbia heterophylla), pigweed, palmer (palmer pigweed, Amaranthus palmeri), waterhemp (common waterhemp, Amaranthus rudis), surinam grass (Brachiaria decumbens), crabgrass, large (large crabgrass, Digitaria sanguinalis), crabgrass, Brazil (Brazilian crabgrass, Digitaria horizontalis), panicum, fall (fall panicum, Panicum dichotomiflorum), foxtail, giant (giant foxtail, Setaria faberii), foxtail, green (green foxtail, Setaria viridis), goosegrass (Eleusine indica), johnsongrass (Sorghum halepense), ragweed (common ragweed, Ambrosia elatior), barnyardgrass (Echinochloa crus-galli), sandbur (southern sandbur, Cenchrus echinatus), arrowleaf […] rhombifolia), ryegrass, Italian (Italian ryegrass, Lolium multiflorum), dayflower, VA (Virginia dayflower, Commelina virginica), field bindweed (Convolvulus arvensis), morningglory (Ipomoea coccinea), nightshade (eastern black nightshade, Solanum ptycanthum), kochia (Kochia scoparia), nutsedge, yellow (yellow nutsedge, Cyperus esculentus), cocklebur (common cocklebur, Xanthium strumarium), smartweed (ladysthumb smartweed, Polygonum Persicaria) and beggarticks (hairy beggarticks, Bidens pilosa), were planted into a silt loam soil and treated preemergence with test chemicals formulated in a non-phytotoxic solvent mixture which included a surfactant. Treated plants and controls were maintained in a greenhouse for 21 days, after which time all species were compared to controls and visually evaluated. Plant response ratings, summarized in Table E, are based on a scale of 0 to 100 where 0 is no effect and 100 is complete control. A dash (-) response means no test result."}}, "data": [{"smiles": "O=C1NCC(c2ccc(C(F)(F)F)cc2)C1C(=O)Nc1ccc(F)c(F)c1F", "note": "(centres unmarked) [Compound 232]", "values": [{"measurement": "Plant response rating, Surinam Grass", "setting": "surinam grass; 31 g ai/ha", "result": 40}, {"measurement": "Plant response rating, Surinam Grass", "setting": "surinam grass; 62 g ai/ha", "result": 50}, {"measurement": "Plant response rating, Surinam Grass", "setting": "surinam grass; 125 g ai/ha", "result": 70}, {"measurement": "Plant response rating, Surinam Grass", "setting": "surinam grass; 250 g ai/ha", "result": 98}, {"measurement": "Plant response rating, Crabgrass, Large", "setting": "crabgrass, large; 31 g ai/ha", "result": 95}, {"measurement": "Plant response rating, Crabgrass, Large", "setting": "crabgrass, large; 62 g ai/ha", "result": 98}, {"measurement": "Plant response rating, Crabgrass, Large", "setting": "crabgrass, large; 125 g ai/ha", "result": 98}, {"measurement": "Plant response rating, Crabgrass, Large", "setting": "crabgrass, large; 250 g ai/ha", "result": 98}, {"measurement": "Plant response rating, Johnsongrass", "setting": "johnsongrass; 31 g ai/ha", "result": 0}, {"measurement": "Plant response rating, Johnsongrass", "setting": "johnsongrass; 62 g ai/ha", "result": 0}, {"measurement": "Plant response rating, Johnsongrass", "setting": "johnsongrass; 125 g ai/ha", "result": 0}, {"measurement": "Plant response rating, Johnsongrass", "setting": "johnsongrass; 250 g ai/ha", "result": 25}, {"measurement": "Plant response rating, Barnyardgrass", "setting": "barnyardgrass; 31 g ai/ha", "result": 60}, {"measurement": "Plant response rating, Barnyardgrass", "setting": "barnyardgrass; 62 g ai/ha", "result": 70}, {"measurement": "Plant response rating, Barnyardgrass", "setting": "barnyardgrass; 125 g ai/ha", "result": 98}, {"measurement": "Plant response rating, Barnyardgrass", "setting": "barnyardgrass; 250 g ai/ha", "result": 95}, {"measurement": "Plant response rating, Arrowleaf Sida", "setting": "arrowleaf sida; 31 g ai/ha", "result": 0}, {"measurement": "Plant response rating, Arrowleaf Sida", "setting": "arrowleaf sida; 62 g ai/ha", "result": 20}, {"measurement": "Plant response rating, Arrowleaf Sida", "setting": "arrowleaf sida; 125 g ai/ha", "result": 65}, {"measurement": "Plant response rating, Arrowleaf Sida", "setting": "arrowleaf sida; 250 g ai/ha", "result": 90}]}]}
